{
  "source": "patent US11485751B2",
  "about": "“Apramycin derivatives” (WAYNE STATE UNIVERSITY, priority 2017, dated 2022)",
  "key": {"[1]": {"test_system": "E. coli AG153 AAC(3)-II APH(3′)-II rmtB", "assay": "Activity against G1405-methylated 16S-rRNA, clinical isolate AG153", "type": "cell-based", "outline": "(§1)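 Read-out is the minimal inhibitory concentration, obtained in broth microdilution run according to CLSI guidelines (M07-A10).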"}, "[2]": {"test_system": "clinical isolates carrying APH(3′)-II", "assay": "MIC broth microdilution, APH(3′)-II", "type": "cell-based", "settings": "clinical isolates, IMM Univ. Zurich; APH(3′)-II; read-out: MIC APH(3′)-II"}, "[3]": {"test_system": "clinical isolates carrying APH(3′)-I", "assay": "MIC broth microdilution, APH(3′)-I", "type": "cell-based", "settings": "IMM Univ. Zurich"}, "[4]": {"test_system": "Enterobacteriaceae, Pseudomonas, Acinetobacter, and Mycobacteria", "assay": "Antibacterial potency, Tables 4+5 overall", "type": "cell-based", "settings": "against Enterobacteriaceae, Mycobacteria (Tables 4+5)", "from_the_text": "Minimal inhibitory concentrations (MIC) have been determined by broth microdilution assays (CLSI. Methods for Dilution Antimicrobial Susceptibility Tests for Bacteria That Grow Aerobically; Approved Standard—Tenth Edition. CLSI document M07-A10. Wayne, Pa.: Clinical and Laboratory Standards Institute; 2015.)."}, "[5]": {"test_system": "AG290, Enterobacter cloacae", "assay": "MIC reference strain AG290", "type": "cell-based", "settings": "Enterobacter cloacae; reference strain; read-out: MIC AG290 E. cloacae", "outline": "(§2)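 MICs by broth microdilution following CLSI M07-A10.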"}, "[6]": {"test_system": "AG039 MRSA AAC(6′)-I ANT(4′)-I", "assay": "Antibacterial activity, clinical isolate AG039", "type": "cell-based", "outline": "(§3)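 MICs determined by broth microdilution following CLSI M07-A10 (2015) against clinical isolates.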"}, "[7]": {"test_system": "AG055 E. coli WT", "assay": "Antibacterial activity, clinical isolate AG055", "type": "cell-based", "set-up": "unit not given here", "outline": "as §3"}, "[8]": {"test_system": "AG212, Escherichia coli ATCC25922", "assay": "MIC reference strain AG212", "type": "cell-based", "settings": "Escherichia coli; reference strain ATCC25922; read-out: MIC AG212 E. coli", "outline": "as §2"}, "[9]": {"test_system": "Engineered E. coli pH424 armA", "assay": "Activity against G1405-methylated 16S-rRNA, E. coli pH424 armA", "type": "cell-based", "outline": "as §1"}, "[10]": {"test_system": "AG032 P. aer. APH(3′)-II", "assay": "Antibacterial activity, clinical isolate AG032", "type": "cell-based", "set-up": "unit not given here", "outline": "as §3"}, "[11]": {"test_system": "AG220, Pseudomonas aeruginosa ATCC27853", "assay": "MIC reference strain AG220", "type": "cell-based", "settings": "Pseudomonas aeruginosa, ATCC27853, reference strain ATCC27853; read-out: MIC AG220 P. aeruginosa", "outline": "as §2"}, "[12]": {"test_system": "Enterob. AG302 AAC(3)-II AAC(6′)-I rmtC", "assay": "Activity against G1405-methylated 16S-rRNA, clinical isolate AG302", "type": "cell-based", "outline": "as §1"}, "[13]": {"test_system": "AG033 P. aer. APH(3′)-II AAC(6′)-I", "assay": "Antibacterial activity, clinical isolate AG033", "type": "cell-based", "set-up": "unit not given here", "outline": "as §3"}, "[14]": {"test_system": "AG038 MRSA", "assay": "Antibacterial activity, clinical isolate AG038", "type": "cell-based", "set-up": "unit not given here", "outline": "as §3"}, "[15]": {"test_system": "bacterial ribosomes", "assay": "in-vitro translation assay, bacterial ribosomes", "type": "biochemical", "outline": "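Inhibitory potency was determined as IC50 in in-vitro translation systems based on bacterial ribosomes, human chimeric (mitochondrial-type) ribosomes or rabbit reticulocyte (cytosolic) ribosomes.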"}, "[16]": {"test_system": "clinical isolates carrying APH(3′)-VI", "assay": "MIC broth microdilution, APH(3′)-VI", "type": "cell-based", "settings": "IMM Univ. Zurich"}, "[17]": {"test_system": "clinical isolates carrying AAC(3)-IV", "assay": "MIC broth microdilution, AAC(3)-IV", "type": "cell-based", "settings": "clinical isolates, IMM Univ. Zurich; AAC(3)-IV; read-out: MIC AAC(3)-IV", "outline": "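MICs obtained by broth microdilution following CLSI M07-A10, tested against clinical isolates from the Institute of Medical Microbiology, Univ. Zurich; values in μg/ml.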"}, "[18]": {"test_system": "AG003 E. coli AAC(3)-II", "assay": "Antibacterial activity, clinical isolate AG003", "type": "cell-based", "outline": "as §3"}, "[19]": {"test_system": "Engineered E. coli pH430 WT", "assay": "Activity, engineered E. coli pH430 WT", "type": "cell-based", "settings": "wild type", "outline": "as §1"}, "[20]": {"test_system": "Engineered E. coli pH427 rmtF", "assay": "Activity against G1405-methylated 16S-rRNA, E. coli pH427 rmtF", "type": "cell-based", "outline": "as §1"}, "[21]": {"test_system": "Engineered E. coli AG103 armA", "assay": "Activity against G1405-methylated 16S-rRNA, E. coli AG103 armA", "type": "cell-based", "outline": "as §1"}, "[22]": {"test_system": "AG225, Acinetobacter baumannii pittii", "assay": "MIC reference strain AG225", "type": "cell-based", "settings": "Acinetobacter baumannii, reference strain; read-out: MIC AG225 A. baumannii", "outline": "as §2"}, "[23]": {"test_system": "AG001 E. coli WT", "assay": "Antibacterial activity, clinical isolate AG001", "type": "cell-based", "set-up": "unit not given here", "outline": "as §3"}, "[24]": {"test_system": "AG215, Klebsiella pneumonia", "assay": "MIC reference strain AG215", "type": "cell-based", "settings": "Klebsiella pneumoniae, reference strain; read-out: MIC AG215 K. pneumonia", "outline": "as §2"}, "[25]": {"test_system": "Engineered E. coli pH426 rmtC", "assay": "Activity against G1405-methylated 16S-rRNA, E. coli pH426 rmtC", "type": "cell-based", "outline": "as §1"}, "[26]": {"test_system": "Engineered E. coli pH425 rmtB", "assay": "Activity against G1405-methylated 16S-rRNA, E. coli pH425 rmtB", "type": "cell-based", "outline": "as §1"}, "[27]": {"test_system": "AG173 E. coli AAC(3)-IV", "assay": "Antibacterial activity, clinical isolate AG173", "type": "cell-based", "outline": "as §3"}, "[28]": {"test_system": "AG042 MRSA AAC(6′)-I ANT(4′)-I APH(2′)", "assay": "Antibacterial activity, clinical isolate AG042", "type": "cell-based", "set-up": "unit not given here", "outline": "as §3"}, "[29]": {"test_system": "human cytosolic ribosomes", "assay": "in-vitro translation assay, human cytosolic ribosomes", "type": "biochemical", "outline": "(§4)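 Each ribosome preparation (bacterial, human chimeric as the mitochondrial model, rabbit reticulocyte as the cytosolic model) drives in-vitro translation with the test compound present. Inhibition of translation gives the IC50.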"}, "[30]": {"test_system": "AG163 E. coli APH(3′)-I", "assay": "Antibacterial activity, clinical isolate AG163", "type": "cell-based", "outline": "as §3"}, "[31]": {"test_system": "human mitochondrial ribosomes", "assay": "in-vitro translation assay, human mitochondrial (human chimeric) ribosomes", "type": "biochemical", "outline": "as §4"}, "[32]": {"test_system": "clinical isolates carrying APH(3′)-III", "assay": "MIC broth microdilution, APH(3′)-III", "type": "cell-based", "settings": "IMM Univ. Zurich"}, "[33]": {"test_system": "A baum. AG227 APH(3′)-I armA", "assay": "Activity against G1405-methylated 16S-rRNA, clinical isolate AG227", "type": "cell-based", "outline": "as §1"}, "[34]": {"test_system": "AG031 P. aer. APH(3′)-II", "assay": "Antibacterial activity, clinical isolate AG031", "type": "cell-based", "set-up": "unit not given here", "outline": "as §3"}, "[35]": {"test_system": "K. pneum. AG269 AAC(3)-II AAC(6′)-I rmtB", "assay": "Activity against G1405-methylated 16S-rRNA, clinical isolate AG269", "type": "cell-based", "outline": "as §1"}},
  "data": [
    {"compound": "CNC1C(OC2OC(CO)C(N)C(O)C2O)OC2CC(N)C(OC3C(N)CC(N)C(O)C3OC3OC(CN)C(OCCN)C3O)OC2C1O", "note": "[DC185, 5-O-β-[5-Amino-3-O-(2-aminoethyl)-5-deoxy-D-ribofuranosyl] apramycin]", "values": [
      {"measurement": "Activity E. coli AG153 AAC(3)-II APH(3′)-II rmtB", "setting": "[1]", "value": 4},
      {"measurement": "MIC", "setting": "[2]", "value": 1, "unit": "µg/mL"},
      {"measurement": "MIC", "setting": "[3]", "value": 1, "unit": "µg/mL"},
      {"measurement": "antibacterial potency", "setting": "[4]", "value": "increased antibacterial potency"},
      {"measurement": "MIC", "setting": "[5]", "value": 1, "unit": "µg/mL"},
      {"measurement": "Antibacterial activity AG039 MRSA AAC(6′)-I ANT(4′)-I", "setting": "[6]", "value": 1},
      {"measurement": "Antibacterial activity AG055 E. coli WT", "setting": "[7]", "value": 2},
      {"measurement": "MIC", "setting": "[8]", "value": 2, "unit": "µg/mL"},
      {"measurement": "Activity E. coli pH424 armA", "setting": "[9]", "value": 2},
      {"measurement": "Antibacterial activity AG032 P. aer. APH(3′)-II", "setting": "[10]", "value": 2},
      {"measurement": "MIC", "setting": "[11]", "value": "1 to 2", "unit": "µg/mL"},
      {"measurement": "Activity Enterob. AG302 AAC(3)-II AAC(6′)-I rmtC", "setting": "[12]", "value": 1},
      {"measurement": "Antibacterial activity AG033 P. aer. APH(3′)-II AAC(6′)-I", "setting": "[13]", "value": 2},
      {"measurement": "Antibacterial activity AG038 MRSA", "setting": "[14]", "value": 1},
      {"measurement": "IC50", "setting": "[15]", "value": 0.03, "unit": "µM"},
      {"measurement": "MIC", "setting": "[16]", "value": 2, "unit": "µg/mL"},
      {"measurement": "MIC", "setting": "[17]", "value": "> 32", "unit": "µg/mL"},
      {"measurement": "Antibacterial activity AG003 E. coli AAC(3)-II", "setting": "[18]", "value": "1-2"},
      {"measurement": "Activity E. coli pH430 WT", "setting": "[19]", "value": 1},
      {"measurement": "Activity E. coli pH427 rmtF", "setting": "[20]", "value": 2},
      {"measurement": "Activity E. coli AG103 armA", "setting": "[21]", "value": "0.5-1"},
      {"measurement": "MIC", "setting": "[22]", "value": 2, "unit": "µg/mL"},
      {"measurement": "Antibacterial activity AG001 E. coli WT", "setting": "[23]", "value": 2},
      {"measurement": "MIC", "setting": "[24]", "value": "0.5 to 1", "unit": "µg/mL"},
      {"measurement": "Activity E. coli pH426 rmtC", "setting": "[25]", "value": 2},
      {"measurement": "Activity E. coli pH425 rmtB", "setting": "[26]", "value": 2},
      {"measurement": "Antibacterial activity AG173 E. coli AAC(3)-IV", "setting": "[27]", "value": 4},
      {"measurement": "Antibacterial activity AG042 MRSA AAC(6′)-I ANT(4′)-I APH(2′)", "setting": "[28]", "value": 1},
      {"measurement": "IC50", "setting": "[29]", "value": 26, "unit": "µM"},
      {"measurement": "Antibacterial activity AG163 E. coli APH(3′)-I", "setting": "[30]", "value": 2},
      {"measurement": "IC50", "setting": "[31]", "value": 34, "unit": "µM"},
      {"measurement": "MIC", "setting": "[32]", "value": 0.25, "unit": "µg/mL"},
      {"measurement": "Activity A baum. AG227 APH(3′)-I armA", "setting": "[33]", "value": 2},
      {"measurement": "Antibacterial activity AG031 P. aer. APH(3′)-II", "setting": "[34]", "value": 2},
      {"measurement": "Activity K. pneum. AG269 AAC(3)-II AAC(6′)-I rmtB", "setting": "[35]", "value": 1}
    ]}
  ]
}
